Data from patent US11225642B2, “Method for producing renal progenitor cells” (KYOTO UNIVERSITY, priority 2013, dated 2022).

Experiments:
[1] = tested on: OSR1-GFP & SIX2-tdTomato reporter human iPS cell line; assay: SIX2-positive cell induction method 1, SIX2-tdTomato-positive cell rate by flow cytometer; type: cell-based; conditions: induction method 1; stage 3 medium with 5 ng/ml TGFβ1 and 0.5 μM Dorsomorphin, 15 to 22 days
Method: The OSR1-GFP & SIX2-tdTomato reporter human iPS cell line obtained by the method in Example 1 was cultured at 37° C. in a 2-5% CO2 atmosphere to become confluent on 10-cm dishes containing a primate ES/iPS cell medium (ReproCELL) supplemented with 5 ng/ml bFGF (Wako) with the use of SNL cells (McMahon, A. P. and Bradley, A. (1990) Cell 62; 1073-1085) (the cells being treated with 15.5 μg/ml mitomycin (Kyowa Hakko Kirin Co., Ltd.) for 2 to 3 hours and seeded at a density of 3×10^5 cells/10-cm dish) as feeder cells. A CTK solution (2.5% Trypsin (Invitrogen), 1 mg/ml Collagenase IV (Invitrogen), 0.1 M CaCl2, 10 mL KnockOut SR (Invitrogen), and 29.5 mL H2O) was added to dissociate the cells. After removal of the feeder cells, the dissociated cells were suspended in a DMEM/F12 medium containing 1 μM CHIR99021 (Stemgent, 04-0004), 100 ng/ml Activin A (R&D Systems, 338-AC), 1% GlutaMAX (100×) (Invitrogen, 35050-061), 2% FBS (Hyclone), and 0.5% PenStrep (Invitrogen, 10565). Then, the cell suspensions were transferred to a low cell binding plate (LOW CELL BIND 6 WELL DISH (Nunc, 145383)) such that each well contained one-third to one-sixth of the cell suspension obtained from the 10-cm dish, followed by suspension culture at 37° C. in a 5% CO2 atmosphere for 2 days.
The cell mass obtained at stage 1 was transferred to a 24-well or 6-well dish coated with Matrigel (BD Matrigel Matrix Growth Factor Reduced (BD Biosciences, 356230) (the dish being coated with 0.2 mg/ml Matrigel in DMEM and treated at 37° C. for 30 minutes or at 4° C. overnight) or a 24-well or 6-well dish coated with Synthemax (Corning Synthemax II-SC Substrate (Corning, 3535XX1)) (the dish being coated with Synthemax diluted 40-fold with sterile water and treated at room temperature for 2 hours). The medium was exchanged with a DMEM/F12 medium containing 1 μM CHIR99021, 100 ng/ml BMP7 (Recombinant human BMP7 (R&D Systems, 3534-BP)), 0.1% 2-mercaptoethanol (1000×) (Invitrogen, 21985), 1% GlutaMAX (100×), 10% KnockOut SR (Invitrogen), 0.1 mM MEM NEAA (Invitrogen, 11140), and 0.5% PenStrep, followed by adhesion culture at 37° C. in a 5% CO2 atmosphere for 3 to 6 days. In the case of culture for 3 days or more, the medium was exchanged every 3 days with a medium having the same conditions.
The medium was removed from the cells obtained at stage 2. The cells were washed with PBS and then the medium was exchanged with a DMEM/F12 medium containing 5 ng/ml TGFβ1 (Peprotech, 100-21C), 0.5 μM Dorsomorphin (AMPK Inhibitor, Compound C (Merck, 171260)), 0.1% 2-mercaptoethanol (1000×), 1% GlutaMAX (100×), 10% KnockOut SR, 0.1 mM MEM NEAA, and 0.5% PenStrep, followed by suspension culture at 37° C. in a 5% CO2 atmosphere for 15 to 22 days. In this case, the medium was exchanged every 3 days with a medium having the same conditions.
At stage 3 of SIX2-positive cell induction method 1, Dorsomorphin was replaced with 100 ng/ml Noggin (Peprotech), 0.5 μM LDN193189 (Axon MedChem, 1509), or 0.5 μM DMH1 (Tocris, 4126) for differentiation induction in the aforementioned manner.
At stage 3 of SIX2-positive cell induction method 1, TGFβ1 was exchanged with 50 μM IDE1 (Tocris) or 50 μM IDE2 (Tocris) for differentiation induction in the aforementioned manner.
At stage 3 of SIX2-positive cell induction method 1, Dorsomorphin was replaced with 0.5 μM LDN193189, while TGFβ1 with 10 ng/ml TGFβ2 (Peprotech) or 10 ng/ml TGFβ3 (R&D), for differentiation induction in the aforementioned manner. As a result, the SIX2-positive cell rates were 8.6% and 9.3%, respectively (FIGS. 2G and 2H).

[2] = tested on: OSR1-GFP & SIX2-tdTomato reporter human iPS cell line; assay: SIX2-positive cell induction method 2, SIX2-tdTomato-positive cell rate by flow cytometer; type: cell-based; conditions: stage 3 medium with 5 ng/ml TGFβ1 and 0.5 μM Dorsomorphin, 12 to 22 days
Method: The OSR1-GFP & SIX2-tdTomato reporter human iPS cell line obtained by the method in Example 1 was cultured in the manner described in stage 1 of induction method 1 to become confluent on 10-cm dishes using SNL cells as feeder cells. A CTK solution was added to dissociate the cells. After removal of the feeder cells, the dissociated cells were suspended in a DMEM/F12 medium containing 1 μM TTNPB (Sigma, T3757), 1 μM CHIR99021, 1% GlutaMAX (100×), 2% FBS, and 0.5% PenStrep. Then, the cell suspensions were transferred to a low cell binding plate (LOW CELL BIND 6 WELL DISH) such that each well contained one-third to one-sixth of the cell suspension obtained from the 10-cm dish, followed by suspension culture at 37° C. in a 5% CO2 atmosphere for 2 days.
The cell mass obtained at stage 1 was transferred to dishes coated with Matrigel or dishes coated with Synthemax (prepared in the manner described in stage 2 of induction method 1). The medium was exchanged with a DMEM/F12 medium containing 1 μM TTNPB, 0.1% 2-mercaptoethanol (1000×), 1% GlutaMAX (100×), 10% KnockOut SR, 0.1 mM MEM NEAA, and 0.5% PenStrep, followed by adhesion culture at 37° C. in a 5% CO2 atmosphere for 3 to 9 days. In this case, the medium was exchanged every 3 days with a medium having the same conditions.
The medium was removed from the cells obtained at stage 2. […]

Molecule | SIX2-tdTomato-positive cell rate [1] [%] | SIX2-tdTomato-positive cell rate [2] [%]
c1cc(-c2cnn3cc(-c4ccc(OCCN5CCCCC5)cc4)cnc23)ccn1 [Dorsomorphin, 6-[4-(2-piperidin-1-yl-ethoxy)phenyl]-3-pyridin-4-yl-pyrazolo[1,5-a]pyrimidine] | 21.5±2.0 | 20.6±5.3
TGFβ1: TGFβ signaling activator protein (Peprotech) | 21.5±2.0 | 20.6±5.3
